Source: publication PMC3954708 (Bioorganic & medicinal chemistry letters, 2013)
Values belong to the compound of their own block, whether it stands above or below them.

Legend:
UT-B [1] = conditions: cited from earlier work
[2] = cited from earlier work
[3] = administration to mice; cited from earlier work
[4] = microsomal stability with rat liver microsomes and NADPH, LCMS analysis; type: in vitro ADME; conditions: liver microsomes
UT-B [5] = target: T1, UT-B (Homo sapiens, UniProt Q13336); assay: erythrocyte lysis assay for UT-B inhibition; type: cell-based, mouse
T1 sequence (Q13336 1-389): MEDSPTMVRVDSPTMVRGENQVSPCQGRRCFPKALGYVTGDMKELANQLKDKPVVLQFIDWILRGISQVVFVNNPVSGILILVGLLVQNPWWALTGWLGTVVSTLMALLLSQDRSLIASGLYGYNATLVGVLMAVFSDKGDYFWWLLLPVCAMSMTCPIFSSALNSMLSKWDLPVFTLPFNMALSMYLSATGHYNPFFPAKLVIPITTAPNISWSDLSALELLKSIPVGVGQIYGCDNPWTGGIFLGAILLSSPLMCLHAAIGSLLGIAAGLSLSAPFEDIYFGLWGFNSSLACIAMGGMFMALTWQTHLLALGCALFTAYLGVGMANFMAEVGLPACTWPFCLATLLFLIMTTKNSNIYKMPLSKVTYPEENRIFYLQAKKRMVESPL

[6] = IC50 (inhibitory potency, abstract), UT-B inhibition
[7] = IC50 (UT-B inhibition activity), mouse erythrocyte lysis assay (n = 3), fit to single-site saturation model

SMILES: CCc1ccc(S(=O)(=O)c2nnn3c2nc(NCc2cccs2)c2sccc23)cc1 [Compound 1a]
mechanism of UT-B inhibition (UT-B [1]): competitive mechanism
microsomal degradation / hepatic oxidation [2]: underwent rapid oxidation by hepatic enzymes
effect on urine osmolality [3]: reduced urine osmolality
effect on urine output [3]: increased urine output

SMILES: CC(F)(F)c1ccc(S(=O)(=O)c2nnn3c2nc(NCc2cccs2)c2sccc23)cc1 [Compound 1c]
microsomal degradation / hepatic oxidation [2]: resisted microsomal degradation
remaining at 0.5 h [4]: 96%

IC50 (UT-B [5]; [6]): ~40 nM
SMILES: Cc1csc(CNc2nc3c(S(=O)(=O)c4ccc(C(C)(F)F)cc4)nnn3c3ccsc23)c1 [Compound 4a]

IC50 (UT-B [5]; [6]): ~40 nM
SMILES: CC(F)(F)c1ccc(S(=O)(=O)c2nnn3c2nc(NCc2ccsc2)c2sccc23)cc1 [Compound 4b]

IC50 (UT-B [5]; [7]): > 800 nM
SMILES: CC(F)(F)c1ccc(S(=O)(=O)c2nnn3c2nc(NCc2ccccc2)c2sccc23)cc1 [Compound 4d]

IC50 (UT-B [5]; [7]): > 800 nM
SMILES: CC(F)(F)c1ccc(S(=O)(=O)c2nnn3c2nc(NCC2CC2)c2sccc23)cc1 [Compound 4e]

IC50 (UT-B [5]; [7]): > 800 nM
SMILES: CC(F)(F)c1ccc(S(=O)(=O)c2nnn3c2nc(NCC2CCC2)c2sccc23)cc1 [Compound 4f]
